Measured values: ChEMBL document CHEMBL5543113, “Amphiphilic α-Peptoid-deoxynojirimycin Conjugate-based Multivalent Glycosidase Inhibitor for Hypoglycemic Effect and Fluorescence Imaging” (J Med Chem, 2024)
The source made the active and inactive calls. The calls are words filed in the database; no cut-off is given here.

Columns and labels:
[1] = Inhibition of C57BL/6J mouse Alpha-glucosidase incubated for 10 mins by Lineweaver-Burk plot analysis
Mus musculus [2] = assay: Hypoglycemic activity in KKAy diabetic mouse model assessed as decrease in PBG level at 1.6 mg/kg, po co-administered with 1 g/kg maltose measured after 15 mins by glucometer relative to control; assay type: functional; design: scale not given: the % may be the effect or the level left; conditions: 0.25 h
Mus musculus [3] = assay: Hypoglycemic activity in KKAy diabetic mouse model assessed as decrease in PBG level at 1.6 mg/kg, po co-administered with 1 g/kg maltose measured after 30 mins by glucometer relative to control; assay type: functional; design: scale not given: the % may be the effect or the level left; conditions: 0.5 h
Mus musculus [4] = assay: Hypoglycemic activity in KKAy diabetic mouse model assessed as decrease in PBG level at 1.6 mg/kg, po co-administered with 1 g/kg maltose measured at 60 to 120 mins by glucometer; assay type: functional, organism-based; conditions: time 60-120 min
Mus musculus [5] = assay: Hypoglycemic activity in KKAy diabetic mouse model assessed as blood glucose level at 1.6 mg/kg, po co-administered with 1 g/kg maltose and measured after 15 mins by glucometer (reference value: 453 +/- 38.6 mg/dl); assay type: functional; conditions: 0.25 h
Mus musculus [6] = assay: Hypoglycemic activity in KKAy diabetic mouse model assessed as blood glucose level at 1.6 mg/kg, po co-administered with 1 g/kg maltose and measured after 120 mins by glucometer (reference value: 278.4 +/- 14.9 mg/dl); assay type: functional; conditions: 2 h
[7] = Inhibition of Aspergillus niger Alpha-glucosidase incubated for 10 mins by Lineweaver-Burk plot analysis
Mus musculus [8] = assay: Hypoglycemic activity in KKAy diabetic mouse model assessed as blood glucose level at 1.6 mg/kg, po co-administered with 1 g/kg maltose and measured after 30 mins by glucometer (reference value: 491.4 +/- 22.5 mg/dl); assay type: functional; conditions: 0.5 h
Mus musculus [9] = assay: Hypoglycemic activity in KKAy diabetic mouse model assessed as blood glucose level at 1.6 mg/kg, po co-administered with 1 g/kg maltose and measured after 60 mins by glucometer (reference value: 498.6 +/- 31.6 mg/dl); assay type: functional; conditions: 1 h
[10] = target: Alpha-glucosidase (Saccharomyces cerevisiae S288c) (UniProt P53341+P38158+P07265); assay: Inhibition of Saccharomyces cerevisiae Alpha-glucosidase at 1 mM incubated for 10 mins by absorbance based microplate spectrophotometric analysis; assay type: protein assay
[11] = Inhibition of rice Alpha-glucosidase incubated for 10 mins by Lineweaver-Burk plot analysis; design: species or system Oryza sativa
Mus musculus [12] = assay: Hypoglycemic activity in C57BL/6J mouse assessed as blood glucose level at 0.8 mg/kg, po co-administered with maltose and measured after 15 mins by glucometer (380.8 +/- 20.6 mg/dl); assay type: functional; conditions: 0.25 h
Mus musculus [13] = assay: Hypoglycemic activity in C57BL/6J mouse assessed as decrease in PBG level at 0.8 mg/kg, po co-administered with maltose and measured after 30 mins by glucometer relative to control; assay type: functional; design: scale not given: the % may be the effect or the level left; conditions: 0.5 h
Mus musculus [14] = assay: Hypoglycemic activity in C57BL/6J mouse assessed as decrease in PBG level at 0.8 mg/kg, po co-administered with maltose and measured after 15 mins by glucometer relative to control; assay type: functional; design: scale not given: the % may be the effect or the level left; conditions: 0.25 h
Mus musculus [15] = assay: Hypoglycemic activity in C57BL/6J mouse assessed as decrease in PBG level at 0.4 mg/kg, po co-administered with maltose and measured after 30 mins by glucometer relative to control; assay type: functional; design: scale not given: the % may be the effect or the level left; conditions: 0.5 h
Mus musculus [16] = assay: Hypoglycemic activity in KKAy diabetic mouse model assessed as blood glucose level at 1.6 mg/kg, po co-administered with maltose and measured after 60 mins by glucometer (reference value: 582.6 +/- 22.9 mg/dl); assay type: functional; conditions: 1 h
Mus musculus [17] = assay: Hypoglycemic activity in KKAy diabetic mouse model assessed as blood glucose level at 1.6 mg/kg, po co-administered with maltose and measured after 30 mins by glucometer (reference value: 582.6 +/- 22.9 mg/dl); assay type: functional; conditions: 0.5 h
Mus musculus [18] = assay: Hypoglycemic activity in C57BL/6J mouse assessed as reduction in PBG level measured per DNJ unit at 1.6 mg/kg, po co-administered with maltose and measured at 15 to 30 mins by glucometer relative to control; assay type: functional; design: scale not given: the % may be the effect or the level left; conditions: time 15-30 min
Mus musculus [19] = assay: Hypoglycemic activity in KKAy diabetic mouse model assessed as decrease in PBG level at 1.6 mg/kg, po co-administered with maltose and measured after 60 mins by glucometer relative to control; assay type: functional; design: scale not given: the % may be the effect or the level left; conditions: 1 h
Mus musculus [20] = assay: Hypoglycemic activity in KKAy diabetic mouse model assessed as blood glucose level at 1.6 mg/kg, po co-administered with maltose and measured after 120 mins by glucometer (reference value: 582.6 +/- 22.9 mg/dl); assay type: functional; conditions: 2 h
Mus musculus [21] = assay: Hypoglycemic activity in C57BL/6J mouse assessed as molar reduction in PBG level at 1.6 mg/kg, po co-administered with maltose and measured after 30 mins by glucometer relative to control; assay type: functional; design: scale not given: the % may be the effect or the level left; conditions: 0.5 h
Mus musculus [22] = assay: Hypoglycemic activity in KKAy diabetic mouse model assessed as molar decrease in PBG level at 1.6 mg/kg, po co-administered with maltose and measured after 30 mins by glucometer relative to control; assay type: functional; design: scale not given: the % may be the effect or the level left; conditions: 0.5 h
Mus musculus [23] = assay: Hypoglycemic activity in C57BL/6J mouse assessed as decrease in PBG level at 0.4 mg/kg, po co-administered with maltose and measured after 15 mins by glucometer relative to control; assay type: functional; design: scale not given: the % may be the effect or the level left; conditions: 0.25 h
Mus musculus [24] = assay: Hypoglycemic activity in C57BL/6J mouse assessed as blood glucose level at 0.4 mg/kg, po co-administered with maltose and measured after 30 mins by glucometer (380.8 +/- 20.6 mg/dL); assay type: functional; conditions: 0.5 h
Mus musculus [25] = assay: Hypoglycemic activity in C57BL/6J mouse assessed as blood glucose level at 1.6 mg/kg, po co-administered with maltose and measured after 15 mins by glucometer (380.8 +/- 20.6 mg/dL); assay type: functional; conditions: 0.25 h
Mus musculus [26] = assay: Hypoglycemic activity in KKAy diabetic mouse model assessed as decrease in PBG level at 1.6 mg/kg, po co-administered with maltose and measured after 15 mins by glucometer relative to control; assay type: functional; design: scale not given: the % may be the effect or the level left; conditions: 0.25 h
Mus musculus [27] = assay: Hypoglycemic activity in C57BL/6J mouse assessed as blood glucose level at 0.4 mg/kg, po co-administered with maltose and measured after 15 mins by glucometer (380.8 +/- 20.6 mg/dl); assay type: functional; conditions: 0.25 h
Mus musculus [28] = assay: Hypoglycemic activity in C57BL/6J mouse assessed as decrease in PBG level at 1.6 mg/kg, po co-administered with maltose and measured after 30 mins by glucometer relative to control; assay type: functional; design: scale not given: the % may be the effect or the level left; conditions: 0.5 h
Mus musculus [29] = assay: Hypoglycemic activity in KKAy diabetic mouse model assessed as decrease in PBG level at 1.6 mg/kg, po co-administered with maltose and measured after 120 mins by glucometer relative to control; assay type: functional; design: scale not given: the % may be the effect or the level left; conditions: 2 h
Mus musculus [30] = assay: Hypoglycemic activity in KKAy diabetic mouse model assessed as decrease in PBG level at 1.6 mg/kg, po co-administered with maltose and measured after 30 mins by glucometer relative to control; assay type: functional; design: scale not given: the % may be the effect or the level left; conditions: 0.5 h
Mus musculus [31] = assay: Hypoglycemic activity in C57BL/6J mouse assessed as decrease in PBG level at 1.6 mg/kg, po co-administered with maltose and measured after 15 mins by glucometer relative to control; assay type: functional; design: scale not given: the % may be the effect or the level left; conditions: 0.25 h
Mus musculus [32] = assay: Hypoglycemic activity in C57BL/6J mouse assessed as reduction in PBG level measured per DNJ unit at 0.8 mg/kg, po co-administered with maltose and measured at 15 to 30 mins by glucometer relative to control; assay type: functional; design: scale not given: the % may be the effect or the level left; conditions: time 15-30 min
Mus musculus [33] = assay: Hypoglycemic activity in C57BL/6J mouse assessed as reduction in PBG level measured per DNJ unit at 0.4 mg/kg, po co-administered with maltose and measured at 15 to 30 mins by glucometer relative to control; assay type: functional; design: scale not given: the % may be the effect or the level left; conditions: time 15-30 min
Mus musculus [34] = assay: Hypoglycemic activity in KKAy diabetic mouse model assessed as blood glucose level at 1.6 mg/kg, po co-administered with maltose and measured after 15 mins by glucometer (reference value: 582.6 +/- 22.9 mg/dl); assay type: functional; conditions: 0.25 h
Mus musculus [35] = assay: Hypoglycemic activity in C57BL/6J mouse assessed as blood glucose level at 1.6 mg/kg, po co-administered with maltose and measured after 30 mins by glucometer (380.8 +/- 20.6 mg/dL); assay type: functional; conditions: 0.5 h
Mus musculus [36] = assay: Hypoglycemic activity in C57BL/6J mouse assessed as blood glucose level at 0.8 mg/kg, po co-administered with maltose and measured after 30 mins by glucometer (380.8 +/- 20.6 mg/dL); assay type: functional; conditions: 0.5 h
[37] = Self assembly property of the compound in water assessed as mean diameter at 1 x 10^-4 M by dynamic light scattering spectrometric analysis; assay type: physicochemical; conditions: buffer, 100 µM; dose 1 10^-4M
[38] = Self assembly property of compound in citric acid-phosphate buffer at pH 2 at 1 x 10^-4 M assessed as diameter by dynamic light scattering spectrometric analysis; assay type: physicochemical; conditions: pH 2, 100 µM, dose 1 10^-4M
[39] = Self assembly property of the compound in water assessed as diameter at 1 x 10^-4 M by transmission electron microscopic analysis; assay type: physicochemical; conditions: buffer, 100 µM; dose 1 10^-4M
[40] = Self assembly property of compound in citric acid-phosphate buffer at pH 3 to 7 at 1 x 10^-4M assessed as diameter by dynamic light scattering spectrometric analysis; assay type: physicochemical; conditions: pH 3, 100 µM, dose 1 10^-4M

## OC[C@H]1NC[C@H](O)[C@@H](O)[C@@H]1O [DUVOGLUSTAT]
[1]
  Ki: 39 nM
Mus musculus [2]
  Activity: 21.8%
Mus musculus [3]
  Activity: 3.1%
Mus musculus [4]
  Activity: inactive
Mus musculus [5]
  Activity: 354 mg/dL
Mus musculus [6]
  Activity: 296.4 mg/dL
[7]
  Ki: 3600 nM
Mus musculus [8]
  Activity: 476.4 mg/dL
Mus musculus [9]
  Activity: 489 mg/dL
[10]
  inhibition: inactive
[11]
  Ki: 17 nM

## OCCN1C[C@H](O)[C@@H](O)[C@H](O)[C@H]1CO [MIGLITOL]
Mus musculus [12]
  Activity: 331.9 mg/dL
[1]
  Ki: 1460 nM
Mus musculus [13]
  Activity: 16.5%
Mus musculus [14]
  Activity: 10.7%
Mus musculus [15]
  Activity: 8.2%
Mus musculus [16]
  Activity: 512.4 mg/dL
Mus musculus [17]
  Activity: 535.8 mg/dL
Mus musculus [18]
  Activity: 2.8%
Mus musculus [19]
  Activity: 7.7%
Mus musculus [20]
  Activity: 397.2 mg/dL
Mus musculus [21]
  Activity: 2.8%
Mus musculus [22]
  Activity: 1.1%
Mus musculus [23]
  Activity: 6.2%
Mus musculus [24]
  Activity: 349.5 mg/dL
Mus musculus [25]
  Activity: 298.8 mg/dL
Mus musculus [26]
  Activity: 3.2%
Mus musculus [27]
  Activity: 348.8 mg/dL
Mus musculus [28]
  Activity: 21.9%
Mus musculus [29]
  Activity: 9.4%
Mus musculus [30]
  Activity: 8.6%
[7]
  Ki: 20600 nM
Mus musculus [31]
  Activity: 19.6%
[10]
  inhibition: inactive
Mus musculus [32]
  Activity: 4.3%
Mus musculus [33]
  Activity: 4.2%
Mus musculus [34]
  Activity: 532.2 mg/dL
Mus musculus [35]
  Activity: 297.4 mg/dL
Mus musculus [36]
  Activity: 318.2 mg/dL
[11]
  Ki: 180 nM

## CCCCCCCCCCCCCCCCCCNC(=O)CN(Cc1cn(CCCN2C[C@H](O)[C@@H](O)[C@H](O)[C@H]2CO)nn1)C(=O)CN(Cc1cn(CCCN2C[C@H](O)[C@@H](O)[C@H](O)[C@H]2CO)nn1)C(=O)CN(Cc1cn(CCCN2C[C@H](O)[C@@H](O)[C@H](O)[C@H]2CO)nn1)C(=O)CN(Cc1cn(CCCN2C[C@H](O)[C@@H](O)[C@H](O)[C@H]2CO)nn1)C(C)=O
[1]
  Ki: 15400 nM
[37]
  Activity: 252 nm
[7]
  Ki: 37400 nM
[38]
  Activity: 211 nm
[10]
  inhibition: inactive
[39]
  Activity: 79 nm
[40]
  Activity: ~ 250 nm
[11]
  Ki: 440 nM
